Results published in US12019075B2, “Zwitterionic nanoparticles” (FRAUNHOFER-GESELLSCHAFT ZUR FOERDERUNG DER ANGEWANDTEN …, priority 2017, dated 2024).

Test system: A549 cells
Experiment: Toxicity test with Cellomics Array Scan
Format: cell-based, human
Procedure: The toxicity of the zwitterionic QDQRs-17a and QDQRs-17b was tested using the Cellomics Array Scan. For the toxicity tests, A549 cells were plated on a 96-well plate and incubated with QDQR solutions in a concentration range of 25 to 500 nM. Cadmium chloride, which was used in a concentration range from 25 to 1,000 μM, was used as the positive control. The increase in the cadmium chloride concentration by a factor of 1,000 is due to the fact that a single QDQR of the tested samples contains about 8,200 cadmium atoms. Assuming that the totality of the nanoparticles dissolve and release the cadmium contained in them, the lowest concentration of 25 nM QDQRs used would correspond to a concentration of 205 μM cadmium chloride. After an incubation period of 16 hours, the cells were blended with a staining solution consisting of the cell nucleus dye Hoechst 33342 and the mitochondrial dye MitoTracker® Deep Red FM and then fixed with formaldehyde solution. The 96-well plates were then read out with the Cellomics Array Scan. A software was used to automatically determine the parameters number of cells, cell nucleus intensity and cell nucleus size using the intensity of the dye by Hoechst, and the transmembrane potential of the mitochondria on the basis of the mitochondrial dye. In addition, microscopic images of the cells were taken to control the number of cells and cell morphology.
For the toxicity tests, A549 cells were plated in culture medium on a 96-well plate (10,000 cells per well) and incubated overnight. When the medium had been sucked off, the samples to be tested (diluted with culture medium, 100 μL per well) were applied in different concentrations and incubated for 16 hours. The samples were then removed and the cells were mixed with 100 μL staining solution (final concentration: 75 nM MitoTracker® Deep Red and […] Hoechst 33342 in DMEM with 10% FCS) and incubated for a further 30 minutes. […] After 20 minutes, the fixing solution was sucked off and washed twice with DPBS before the samples were measured on the Cellomics Array Scan.

Structure (SMILES): [Cl][Cd][Cl] [cadmium chloride]
- morphological changes of the cells or cell nuclei (microscopic images) (16 hours incubation): the number of cells decreases noticeably and they get globular
- concentration with toxic effect on the cells (16 hours incubation, tested 25 to 1,000 μM): ≥ 100 µM
- number of cells per well, cell nucleus intensity and cell nucleus size (16 hours, 100 μM or more): decreases significantly
